According to patent publication US6395905B1, “Tetrahydroindazole derivatives as ligands for GABA-A α 5 receptors” (Merck Sharp & Dohme Ltd., priority 1999, dated 2002):

melting point | SMILES
244 °C (dec.) | O=C(Nc1ccccc1)c1n[nH]c2c1C(=O)CCC2 [Example 1, 4-Oxo-4,5,6,7-tetrahydro-1H-indazole-3-carboxylic acid phenylamide]
250 °C (dec.) | O=C(Nc1ccccn1)c1n[nH]c2c1C(=O)CCC2 [Example 3, 4-Oxo-4,5,6,7-tetrahydro-1H-indazole-3-carboxylic acid pyridin-2-ylamide]
250 °C (dec.) | NCCc1ccc(NC(=O)c2n[nH]c3c2C(=O)CCC3)cc1 [Example 5, 4-Oxo-4,5,6,7-tetrahydro-1H-indazole-3-carboxylic acid 4-(2-aminoethyl)phenylamide]
